According to patent US10738071B2, “Polymorphic forms of sofosbuvir” (Mylan Laboratories Limited, priority 2016, dated 2020):

Assay: physical and chemical stability of sofosbuvir form-M3 on storage (water content, PXRD, HPLC purity)
Format: physicochemical
Protocol: The crystalline sofosbuvir form-M3 disclosed herein may be characterized by X-ray powder diffraction. Therefore, samples of crystalline sofosbuvir form-M3 were analyzed on a PANalytical, X'pert PRO powder diffractometer equipped with goniometer of θ/θ configuration and X'Celerator detector. The Cu-anode X-ray tube was operated at 40 kV and 30 mA. The experiments were conducted over the 2θ range of 2.0°-50.0°, 0.030° step size and 50 seconds step time.
Water content was determined on an 841 Titrando Karl-Fischer titrator (Metrohm) by placing 40 mL dehydrated methanol in the titration vessel and titrating with a standardized reagent to reach the electrometric endpoint. A sample (e.g., 0.20 g sofosbuvir form-M3) was added, the mixture was stirred for 1 minute, then titrated to the endpoint with a Karl-Fischer reagent. For each determination, fresh methanol was used. The following calculations may be used to determine water content of each sample:
The physical and chemical stability of sofosbuvir form-M3 was determined by storing the samples at 25±2° C./60±5% relative humidity (RH) and at 40±2° C./75±5% RH for 6 months. The samples were tested to determine water content, detect degradation crystalline form by PXRD analysis, and measure purity by HPLC analysis. HPLC analysis was performed by the parameters listed below:
Chromatographic Conditions:
Injection volume: 20.0 μL
Column oven temperature: 45° C.
Sample temperature: 10° C.
Acquisition time: 25 minutes
Water: Acetonitrile (80:20) % v/v
As an example, Table 1 below discloses data collected on sofosbuvir form-M3 under various storage conditions.

[1] = stored at 25 ± 2° C./60 ± 5% RH, 1 months
[2] = stored at 25 ± 2° C./60 ± 5% RH, 2 months
[3] = stored at 25 ± 2° C./60 ± 5% RH, 3 months
[4] = stored at 25 ± 2° C./60 ± 5% RH, 6 months
[5] = stored at 25 ± 2° C./60 ± 5% RH, Initial
[6] = stored at 40 ± 2° C./75 ± 5% RH, 1 months
[7] = stored at 40 ± 2° C./75 ± 5% RH, 2 months
[8] = stored at 40 ± 2° C./75 ± 5% RH, 3 months
[9] = stored at 40 ± 2° C./75 ± 5% RH, 6 months
[10] = stored at 40 ± 2° C./75 ± 5% RH, Initial
[11] = up to six months at 25±2° C./60±5% RH and at 40±2° C./75±5% RH

CC(C)OC(=O)[C@H](C)N[P@](=O)(OC[C@H]1O[C@@H](n2ccc(=O)[nH]c2=O)[C@](C)(F)[C@@H]1O)Oc1ccccc1 [sofosbuvir form-M3, (S)-isopropyl 2-((S)-(((2R,3R,4R,5R)-5-(2,4-dioxo3,4-dihydropyrimidin-1(2H)-yl)-4-fluoro-3-hydroxy-4-methyltetrahydrofuran-2yl)methoxy)-(phenoxy)phosphorylamino)propanoate]
HPLC Purity [1]: 99.90% | PXRD [1]: form-M3 | Water content [1]: 3.39% | HPLC Purity [2]: 99.90% | PXRD [2]: form-M3 | Water content [2]: 3.45% | HPLC Purity [3]: 99.89% | PXRD [3]: form-M3 | Water content [3]: 3.35% | HPLC Purity [4]: 99.92% | PXRD [4]: form-M3 | Water content [4]: 3.34% | HPLC Purity [5]: 99.92% | PXRD [5]: form-M3 | Water content [5]: 3.59% | HPLC Purity [6]: 99.90% | PXRD [6]: form-M3 | Water content [6]: 3.55% | HPLC Purity [7]: 99.90% | PXRD [7]: form-M3 | Water content [7]: 3.33% | HPLC Purity [8]: 99.89% | PXRD [8]: form-M3 | Water content [8]: 3.19% | HPLC Purity [9]: 99.91% | PXRD [9]: form-M3 | Water content [9]: 3.00% | HPLC Purity [10]: 99.92% | PXRD [10]: form-M3 | Water content [10]: 3.59% | change in PXRD pattern on storage [11]: no significant change in PXRD pattern | change in moisture content on storage [11]: no significant change in moisture content | change in purity on storage [11]: no significant change in purity
